For 28 molecules, IC50 results are on record in patent US11214565B2, “Compound, compositions, and methods” (Denali Therapeutics Inc., priority 2015, dated 2022).

Usually IC50 stands for the midpoint of a concentration-inhibition curve. Lower therefore signals greater potency.

Chain of LRRK2 G2019S enzyme (Q5S007 whole entry G2019S): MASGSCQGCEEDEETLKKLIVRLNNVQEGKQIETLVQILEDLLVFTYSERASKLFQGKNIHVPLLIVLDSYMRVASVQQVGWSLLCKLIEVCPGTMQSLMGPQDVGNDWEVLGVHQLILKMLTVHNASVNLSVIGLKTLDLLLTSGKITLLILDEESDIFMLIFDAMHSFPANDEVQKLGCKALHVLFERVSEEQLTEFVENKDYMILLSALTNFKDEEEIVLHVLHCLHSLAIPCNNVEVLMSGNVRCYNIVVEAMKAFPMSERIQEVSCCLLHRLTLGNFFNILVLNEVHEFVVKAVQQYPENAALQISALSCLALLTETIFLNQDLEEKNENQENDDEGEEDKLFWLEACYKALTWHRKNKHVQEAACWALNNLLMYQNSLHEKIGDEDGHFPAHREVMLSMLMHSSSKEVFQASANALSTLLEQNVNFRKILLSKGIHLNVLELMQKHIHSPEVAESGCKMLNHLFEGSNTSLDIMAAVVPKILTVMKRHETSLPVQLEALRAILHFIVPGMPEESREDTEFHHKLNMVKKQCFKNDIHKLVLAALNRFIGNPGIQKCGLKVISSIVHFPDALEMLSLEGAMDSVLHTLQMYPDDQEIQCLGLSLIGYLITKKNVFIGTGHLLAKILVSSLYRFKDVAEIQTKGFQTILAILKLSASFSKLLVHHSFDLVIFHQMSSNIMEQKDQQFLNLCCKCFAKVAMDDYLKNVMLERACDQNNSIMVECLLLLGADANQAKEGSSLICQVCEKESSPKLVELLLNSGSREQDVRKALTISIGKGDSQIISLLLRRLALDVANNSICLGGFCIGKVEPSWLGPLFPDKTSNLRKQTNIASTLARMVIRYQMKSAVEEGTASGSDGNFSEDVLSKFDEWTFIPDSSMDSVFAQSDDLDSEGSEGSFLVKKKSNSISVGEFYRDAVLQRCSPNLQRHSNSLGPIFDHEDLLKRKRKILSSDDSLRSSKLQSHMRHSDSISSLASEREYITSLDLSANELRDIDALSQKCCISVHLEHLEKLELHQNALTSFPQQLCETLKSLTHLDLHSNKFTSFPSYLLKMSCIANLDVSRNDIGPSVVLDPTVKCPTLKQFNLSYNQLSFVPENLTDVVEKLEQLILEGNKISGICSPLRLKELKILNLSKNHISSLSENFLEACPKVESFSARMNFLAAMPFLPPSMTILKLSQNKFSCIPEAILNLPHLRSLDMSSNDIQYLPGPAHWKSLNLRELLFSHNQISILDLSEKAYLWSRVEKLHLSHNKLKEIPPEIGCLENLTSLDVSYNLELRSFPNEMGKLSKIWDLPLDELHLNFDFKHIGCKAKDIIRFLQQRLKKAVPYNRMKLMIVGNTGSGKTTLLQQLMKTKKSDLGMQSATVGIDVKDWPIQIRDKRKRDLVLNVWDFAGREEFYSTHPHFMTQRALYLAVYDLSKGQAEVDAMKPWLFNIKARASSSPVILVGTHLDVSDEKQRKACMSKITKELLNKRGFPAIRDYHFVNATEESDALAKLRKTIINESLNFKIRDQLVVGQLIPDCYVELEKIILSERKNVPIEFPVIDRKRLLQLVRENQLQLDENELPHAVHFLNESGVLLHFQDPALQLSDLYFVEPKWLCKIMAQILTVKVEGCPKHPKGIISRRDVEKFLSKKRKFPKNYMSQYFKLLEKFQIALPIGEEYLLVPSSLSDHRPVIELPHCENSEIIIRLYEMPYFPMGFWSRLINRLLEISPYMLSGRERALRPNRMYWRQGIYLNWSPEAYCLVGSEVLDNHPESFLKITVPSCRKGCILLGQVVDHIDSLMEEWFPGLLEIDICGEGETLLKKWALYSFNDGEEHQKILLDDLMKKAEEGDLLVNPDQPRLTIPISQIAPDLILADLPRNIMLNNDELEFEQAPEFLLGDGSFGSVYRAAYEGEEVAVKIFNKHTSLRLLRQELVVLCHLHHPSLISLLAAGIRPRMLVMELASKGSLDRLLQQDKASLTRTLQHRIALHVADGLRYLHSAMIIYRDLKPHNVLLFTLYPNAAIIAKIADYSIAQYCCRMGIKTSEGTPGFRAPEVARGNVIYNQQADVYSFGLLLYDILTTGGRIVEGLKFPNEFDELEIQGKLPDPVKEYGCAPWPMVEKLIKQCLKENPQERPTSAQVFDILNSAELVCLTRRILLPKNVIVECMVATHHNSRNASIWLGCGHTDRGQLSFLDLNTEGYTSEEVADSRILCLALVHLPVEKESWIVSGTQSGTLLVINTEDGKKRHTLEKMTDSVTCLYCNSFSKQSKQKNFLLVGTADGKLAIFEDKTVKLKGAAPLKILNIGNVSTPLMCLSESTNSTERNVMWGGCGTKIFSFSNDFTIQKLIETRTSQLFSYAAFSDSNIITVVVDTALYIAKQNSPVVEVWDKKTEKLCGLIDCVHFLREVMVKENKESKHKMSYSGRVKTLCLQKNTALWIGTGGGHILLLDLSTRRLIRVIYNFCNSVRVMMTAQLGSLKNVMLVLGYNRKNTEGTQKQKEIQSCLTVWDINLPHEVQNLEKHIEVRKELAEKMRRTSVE

In the test the target is LRRK2 G2019S enzyme (Homo sapiens (Human), UniProt Q5S007, G2019S). As to the kind of experiment: LRRK2 G2019S TR-FRET biochemical kinase assay (LRRKtide substrate). To be noted: Table A-2; 5 nM LRRK2, 134 μM ATP, 60 minute reaction, 23° C. On the procedure:
LRRK2 G2019S enzyme, Substrate (LRRKtide), ATP, TR-FRET dilution buffer, pLRRKtide antibody, 384-well assay plate, and DMSO.
50 mM Tris pH 7.5, 10 mM MgCl2, 1 mM EGTA, 0.01% Brij-35, 2 mM DTT, 5 nM LRRK2, 134 μM ATP, 60 minute reaction time, 23° C. reaction temperature, and 10 μL total reaction volume.
1×TR-FRET dilution buffer, 10 mM EDTA, 2 nM antibody, 23° C. reaction temperature, and 10 μL total reaction volume.
Compound solutions were prepared by initially diluting to 1 mM with DMSO. 35 μL of reference compound solution, 35 μL of test compound solution, and 35 μL HPE were successively added to the source plate (384-well assay plate, Labcyte). The plates were centrifuged at 2500 rpm for 1 minute and sealed in foil. POD was used to perform a 3.162 fold serial dilution and 100 nL of reference compound solution, test compound solution, HPE and ZPE were transferred to assay plates. The assay plate was centrifuged at 2500 rpm for 1 minute, and sealed with foil.
To perform the enzyme reaction, 5 μL of LRRKtide substrate and kinase mixture in assay buffer was added to all wells of the assay plate. The plate was centrifuged to concentrate the mixture at the bottom of the wells. The assay plate was incubated at 23° C. for 20 minutes. Following incubation, 5 μL of 2×ATP in assay buffer was added to each well, and plates were centrifuged to concentrate the mixture at the bottom of the wells. The plate was incubated at 23° C. for 60 minutes.
To perform the detection of the reaction, EDTA completely mixed in TR-FRET dilution buffer was added to antibody reagent. 10 μL of detection reagent was added to all wells of each well of the assay-plate and the plate was centrifuged to concentrate the mixture at the bottom of the wells. The plate was then incubated at 23° C. for 60 minutes. Plates were read on Perkin Elmer Envision 2104 instrument in TR-FRET mode using a 340 nm excitation filter, 520 nm fluorescence emission filter, and 490 or 495 nm terbium emission filter.
B-2, C2, and D-4 respectively.
A general note: In TR-FRET formats the signal depends on donor and acceptor labels being close together.
In the case of `Cc1nn(C(C)(C)c2ncn(C)n2)cc1Nc1ncc(C(F)(F)F)c(C2CC2)n1` [Compound A-8, 4-cyclopropyl-N-(3-methyl-1-(2-(1-methyl-1H-1,2,4-triazol-3-yl)propan-2-yl)-1H-pyrazol-4-yl)-5-(trifluoromethyl)pyrimidin-2-amine], the IC50 is less than 0.03 µM.

`Cc1nn(C(C)(C)C#N)cc1Nc1ncc(C(F)(F)F)c(-c2cnn(C)c2)n1` [Compound A-9, 2-methyl-2-(3-methyl-4-((4-(1-methyl-1H-pyrazol-4-yl)-5-(trifluoromethyl)pyrimidin-2-yl)amino)-1H-pyrazol-1-yl)propanenitrile] showed a concentration for half-maximal inhibition (IC50) of 0.03 to 0.06 µM.

The molecule `Cc1nn(C(C)(C)C#N)cc1Nc1ncc(C(F)(F)F)c(C2CCCC2)n1` [Compound A-10, 2-[4-[[4-cyclopentyl-5-(trifluoromethyl)pyrimidin-2-yl]amino]-3-methyl-pyrazol-1-yl]-2-methyl-propanenitrile] had a half-inhibitory concentration (IC50) greater than 0.06 µM.

In the case of `Cc1nn(C(C)(C)C#N)cc1Nc1ncc(C(F)(F)F)c(C2CCC2)n1` [Compound A-11, 2-[4-[[4-cyclobutyl-5-(trifluoromethyl)pyrimidin-2-yl]amino]-3-methyl-pyrazol-1-yl]-2-methyl-propanenitrile], the concentration for half-maximal inhibition (IC50) lay within 0.03 to 0.06 µM.

Consider `Cc1nn(C2COC2)cc1Nc1ncc(C(F)(F)F)c(C2CC2)n1` [Compound A-14, 4-cyclopropyl-N-[3-methyl-1-(oxetan-3-yl)pyrazol-4-yl]-5-(trifluoromethyl)pyrimidin-2-amine], for which the 50% inhibitory concentration (IC50) was less than 0.03 µM.

Molecule `Cc1c(Nc2ncc(C(F)(F)F)c(C3CC3)n2)cnn1C1COC1` [Compound A-15, 4-cyclopropyl-N-[5-methyl-1-(oxetan-3-yl)pyrazol-4-yl]-5-(trifluoromethyl)pyrimidin-2-amine] had a 50% inhibitory concentration (IC50) of less than 0.03 µM.

`[2H]C([2H])([2H])n1cnc(C(C)(C)n2cc(Nc3ncc(C(F)(F)F)c(C4CC4)n3)c(C)n2)n1` [Compound A-16, 4-cyclopropyl-N-[3-methyl-1-[1-methyl-1-[1-(trideuteriomethyl)-1,2,4-triazol-3-yl]ethyl]pyrazol-4-yl]-5-(trifluoromethyl)pyrimidin-2-amine] displayed an IC50 of less than 0.03 µM.

With `CC(C)(C#N)n1cc(Nc2ncc(C(F)(F)F)c(C3CC3)n2)c(Cl)n1` [Compound A-17, 2-(3-chloro-4-((4-cyclopropyl-5-(trifluoromethyl)pyrimidin-2-yl)amino)-1H-pyrazol-1-yl)-2-methylpropanenitrile], the IC50 lay within 0.03 to 0.06 µM.

In turn, `Cc1c(Nc2ncc(C(F)(F)F)c(C3CC3)n2)cnn1CC(C)(C)O` [Compound A-18, 1-[4-[[4-cyclopropyl-5-(trifluoromethyl)pyrimidin-2-yl]amino]-5-methyl-pyrazol-1-yl]-2-methyl-propan-2-ol] showed a half-inhibitory concentration (IC50) of 0.03 to 0.06 µM.

Regarding `Cc1nn(CC(C)(C)O)cc1Nc1ncc(C(F)(F)F)c(C2CC2)n1` [Compound A-19, 1-[4-[[4-cyclopropyl-5-(trifluoromethyl)pyrimidin-2-yl]amino]-3-methyl-pyrazol-1-yl]-2-methyl-propan-2-ol], the IC50 was in the range of 0.03 to 0.06 µM.

`CC(=O)N1CCC(n2ncc(Nc3ncc(C(F)(F)F)c(C4CC4)n3)c2C)CC1` [Compound A-20, 1-[4-[4-[[4-cyclopropyl-5-(trifluoromethyl)pyrimidin-2-yl]amino]-5-methyl-pyrazol-1-yl]-1-piperidyl]ethanone] registered an IC50 of less than 0.03 µM.

As to `CC(=O)N1CCC(n2cc(Nc3ncc(C(F)(F)F)c(C4CC4)n3)c(C)n2)CC1` [Compound A-21, 1-[4-[4-[[4-cyclopropyl-5-(trifluoromethyl)pyrimidin-2-yl]amino]-3-methyl-pyrazol-1-yl]-1-piperidyl]ethanone], the IC50 was 0.03 to 0.06 µM.

`Cc1nn(C(C)(C)c2ccnn2C)cc1Nc1ncc(C(F)(F)F)c(C2CC2)n1` [Compound A-22, 4-cyclopropyl-N-(3-methyl-1-(2-(1-methyl-1H-pyrazol-5-yl)propan-2-yl)-1H-pyrazol-4-yl)-5-(trifluoromethyl)pyrimidin-2-amine] displayed an IC50 greater than 0.06 µM.

For `Cc1nn(C(C)(C)c2ccn(C)n2)cc1Nc1ncc(C(F)(F)F)c(C2CC2)n1` [Compound A-23, 4-cyclopropyl-N-(3-methyl-1-(2-(1-methyl-1H-pyrazol-3-yl)propan-2-yl)-1H-pyrazol-4-yl)-5-(trifluoromethyl)pyrimidin-2-amine], the half-inhibitory concentration (IC50) is less than 0.03 µM.

Molecule `Cc1c(Nc2ncc(C(F)(F)F)c(C3CC3)n2)cnn1C1CCOCC1` [Compound A-24, 4-cyclopropyl-N-(5-methyl-1-tetrahydropyran-4-yl-pyrazol-4-yl)-5-(trifluoromethyl)pyrimidin-2-amine] returned a half-maximal inhibitory concentration (IC50) of less than 0.03 µM.

In the case of `Cc1nn(C2CCOCC2)cc1Nc1ncc(C(F)(F)F)c(C2CC2)n1` [Compound A-25, 4-cyclopropyl-N-(3-methyl-1-tetrahydropyran-4-yl-pyrazol-4-yl)-5-(trifluoromethyl)pyrimidin-2-amine], the IC50 lay within 0.03 to 0.06 µM.

Turning to `Cc1c(Nc2ncc(C(F)(F)F)c(C3CC3)n2)cnn1C1CCC(=O)N(C)C1` (stereo not shown) [Compound A-26, 5-(4-((4-cyclopropyl-5-(trifluoromethyl)pyrimidin-2-yl)amino)-5-methyl-1H-pyrazol-1-yl)-1-methylpiperidin-2-one], the IC50 is less than 0.03 µM.

`Cc1nn(C2CCC(=O)N(C)C2)cc1Nc1ncc(C(F)(F)F)c(C2CC2)n1` (stereo not shown) [Compound A-27, 5-(4-((4-cyclopropyl-5-(trifluoromethyl)pyrimidin-2-yl)amino)-3-methyl-1H-pyrazol-1-yl)-1-methylpiperidin-2-one] showed an IC50 greater than 0.06 µM.

Regarding `Cc1c(Nc2ncc(C(F)(F)F)c(C3CC3)n2)cnn1C(CF)CF` [Compound A-28, 4-cyclopropyl-N-[1-[2-fluoro-1-(fluoromethyl)ethyl]-5-methyl-pyrazol-4-yl]-5-(trifluoromethyl)pyrimidin-2-amine], the IC50 was less than 0.03 µM.

On to `Cc1nn(C(CF)CF)cc1Nc1ncc(C(F)(F)F)c(C2CC2)n1` [Compound A-29, 4-cyclopropyl-N-[1-[2-fluoro-1-(fluoromethyl)ethyl]-3-methyl-pyrazol-4-yl]-5-(trifluoromethyl)pyrimidin-2-amine], for which the IC50 is less than 0.03 µM.

Molecule `Cc1c(Nc2ncc(C(F)(F)F)c(C3CC3)n2)cnn1CCF` [Compound A-30, 4-cyclopropyl-N-(1-(2-fluoroethyl)-5-methyl-1H-pyrazol-4-yl)-5-(trifluoromethyl)pyrimidin-2-amine] yielded an IC50 of less than 0.03 µM.

`Cc1nn(CCF)cc1Nc1ncc(C(F)(F)F)c(C2CC2)n1` [Compound A-31, 4-cyclopropyl-N-(1-(2-fluoroethyl)-3-methyl-1H-pyrazol-4-yl)-5-(trifluoromethyl)pyrimidin-2-amine] had a 50% inhibitory concentration (IC50) of less than 0.03 µM.

On to `Cc1nn(C(C)(C)C#N)cc1Nc1ncc(Cl)c(C2CCC2)n1` [Compound A-32, 2-(4-((5-chloro-4-cyclobutylpyrimidin-2-yl)amino)-3-methyl-1H-pyrazol-1-yl)-2-methylpropanenitrile], for which the IC50 was greater than 0.06 µM.

Molecule `Cc1nn(C(C)(C)c2ccnn2C)cc1Nc1ncc(Cl)c(C2CC2)n1` [Compound A-33, 5-chloro-4-cyclopropyl-N-(3-methyl-1-(2-(1-methyl-1H-pyrazol-5-yl)propan-2-yl)-1H-pyrazol-4-yl)pyrimidin-2-amine] showed an IC50 greater than 0.06 µM.

`Cc1nn(C(C)(C)c2ccn(C)n2)cc1Nc1ncc(Cl)c(C2CC2)n1` [Compound A-34, 5-chloro-4-cyclopropyl-N-(3-methyl-1-(2-(1-methyl-1H-pyrazol-3-yl)propan-2-yl)-1H-pyrazol-4-yl)pyrimidin-2-amine] came in with an IC50 of less than 0.03 µM.

For the molecule `Cc1nn(C(C)(C)c2ncn(C)n2)cc1Nc1ncc(Cl)c(C2CC2)n1` [Compound A-35, 5-chloro-4-cyclopropyl-N-(3-methyl-1-(2-(1-methyl-1H-1,2,4-triazol-3-yl)propan-2-yl)-1H-pyrazol-4-yl)pyrimidin-2-amine], the half-inhibitory concentration (IC50) was less than 0.03 µM.

`Cn1cnc(C(C)(C)n2cc(Nc3ncc(C(F)(F)F)c(C4CC4)n3)c(Cl)n2)n1` [Compound A-36, N-(3-chloro-1-(2-(1-methyl-1H-1,2,4-triazol-3-yl)propan-2-yl)-1H-pyrazol-4-yl)-4-cyclopropyl-5-(trifluoromethyl)pyrimidin-2-amine] had an IC50 of less than 0.03 µM.

With `Cn1ncnc1C(C)(C)n1cc(Nc2ncc(C(F)(F)F)c(C3CC3)n2)c(Cl)n1` [Compound A-37, N-(3-chloro-1-(2-(1-methyl-1H-1,2,4-triazol-5-yl)propan-2-yl)-1H-pyrazol-4-yl)-4-cyclopropyl-5-(trifluoromethyl)pyrimidin-2-amine], the IC50 was greater than 0.06 µM.
